Data taken from ChEMBL document CHEMBL3045232, “Inhibition of photophosphorylation and electron transport chain in thylakoids by lasiodiplodin, a natural product from Botryosphaeria rhodina” (J Agric Food Chem, 2007).
Calls of active or inactive are those of the source. No cut-off for these calls is given here.

Key:
Spinacia oleracea [1] = assay: Inhibition of ATP sythesis in freshly lysed Spinacia oleracea (spinach) chloroplasts; format: functional, organism-based
Spinacia oleracea [2] = assay: Induction of Chlorophyll a fluorescence induction curve in freshly lysed chloroplasts of Spinacia oleracea (spinach) at 10 uM; format: functional, organism-based
[3] = target: T1, Chloroplast coupling factor 1 (Spinacia oleracea) (UniProt P00825+P06453+P69447+P06451+P05435+P31853+P06450+P11402+P00833); assay: Inhibition of Mg2+ ATPase activity of coupling factor 1 in chloroplasts of Spinacia oleracea (spinach) leaves at 150 uM; format: protein-complex assay; conditions: values are per cent of control
Spinacia oleracea [4] = assay: Induction of Chlorophyll a fluorescence induction curve in freshly lysed chloroplasts of Spinacia oleracea (spinach) at 300 uM; format: functional, organism-based
[5] = target: T1, Chloroplast coupling factor 1 (Spinacia oleracea); assay: Inhibition of Mg2+ ATPase activity of coupling factor 1 in chloroplasts of Spinacia oleracea (spinach) leaves at 50 uM; format: protein-complex assay; conditions: values are per cent of control
[6] = target: T1, Chloroplast coupling factor 1 (Spinacia oleracea); assay: Inhibition of Mg2+ ATPase activity of coupling factor 1 in chloroplasts of Spinacia oleracea leaves at 25 uM; format: protein-complex assay; conditions: values are per cent of control
[7] = target: T1, Chloroplast coupling factor 1 (Spinacia oleracea); assay: Inhibition of Ca2+ ATPase activity of coupling factor 1 in chloroplasts of Spinacia oleracea (spinach) leaves at 50 uM; format: protein-complex assay
[8] = target: T1, Chloroplast coupling factor 1 (Spinacia oleracea); assay: Inhibition of Ca2+ ATPase activity of coupling factor 1 in chloroplasts of Spinacia oleracea (spinach) leaves at 150 uM; format: protein-complex assay
[9] = target: T1, Chloroplast coupling factor 1 (Spinacia oleracea); assay: Inhibition of Ca2+ ATPase activity of coupling factor 1 in chloroplasts of Spinacia oleracea (spinach) leaves at 25 uM; format: protein-complex assay
[10] = target: T1, Chloroplast coupling factor 1 (Spinacia oleracea); assay: Inhibition of H+ ATPase activity of coupling factor 1 in chloroplasts of Spinacia oleracea (spinach) leaves at 200 uM; format: protein-complex assay
[11] = target: T1, Chloroplast coupling factor 1 (Spinacia oleracea); assay: Inhibition of H+ ATPase activity of coupling factor 1 in chloroplasts of Spinacia oleracea (spinach) leaves at 50 uM; format: protein-complex assay
[12] = target: T1, Chloroplast coupling factor 1 (Spinacia oleracea); assay: Inhibition of H+ ATPase activity of coupling factor 1 in chloroplasts of Spinacia oleracea (spinach) leaves at 150 uM; format: protein-complex assay
Spinacia oleracea [13] = assay: Inhibition of thylakoid electron transport chain in intact chloroplasts of Spinacia oleracea (spinach) leaves assessed as inhibition of uncoupled PS2 electron transport from […] to DCPIP at 300 uM relative to control; conditions: values are per cent of control
Spinacia oleracea [14] = assay: Inhibition of thylakoid electron transport chain in intact chloroplasts of Spinacia oleracea (spinach) leaves assessed as inhibition of uncoupled PS2 electron transport from […] to DCPIP at 200 uM relative to control; conditions: values are per cent of control
Spinacia oleracea [15] = assay: Inhibition of thylakoid electron transport chain in intact chloroplasts of Spinacia oleracea (spinach) leaves assessed as inhibition of uncoupled PS2 electron transport from […] to DCPIP at 100 uM relative to control; conditions: values are per cent of control
Spinacia oleracea [16] = assay: Inhibition of thylakoid electron transport chain in intact chloroplasts of Spinacia oleracea (spinach) leaves assessed as inhibition of uncoupled PS2 electron transport from water to SiM at 400 uM relative to control; conditions: values are per cent of control
Spinacia oleracea [17] = assay: Inhibition of thylakoid electron transport chain in intact chloroplasts of Spinacia oleracea (spinach) leaves assessed as inhibition of uncoupled PS2 electron transport from water to SiM at 300 uM relative to control; conditions: values are per cent of control
Spinacia oleracea [18] = assay: Inhibition of thylakoid electron transport chain in intact chloroplasts of Spinacia oleracea (spinach) leaves assessed as inhibition of uncoupled PS2 electron transport from water to SiM at 200 uM relative to control; conditions: values are per cent of control
Spinacia oleracea [19] = assay: Inhibition of thylakoid electron transport chain in intact chloroplasts of Spinacia oleracea (spinach) leaves assessed as inhibition of uncoupled PS2 electron transport from water to SiM at 100 uM relative to control; conditions: values are per cent of control
Spinacia oleracea [20] = assay: Inhibition of ATP sythesis in freshly lysed Spinacia oleracea (spinach) chloroplasts at 150 uM; format: functional, organism-based
Spinacia oleracea [21] = assay: In vitro inhibition of photophosphorylation in intact chloroplasts of Spinacia oleracea (spinach) leaves assessed as inhibition of uncoupled electron transport from water to methylviologen at 300 uM; format: functional
Spinacia oleracea [22] = assay: In vitro inhibition of photophosphorylation in intact chloroplasts of Spinacia oleracea (spinach) leaves assessed as phosphorylating nonyclic electron transport from water to methylviologen; format: functional
Spinacia oleracea [23] = assay: In vitro inhibition of photophosphorylation in intact chloroplasts of Spinacia oleracea (spinach) leaves assessed as basal electron transport from water to methylviologen; format: functional

`O=c1[nH]cnc2c1ncn2[C@@H]1O[C@H](CO)[C@@H](O)[C@H]1O` was tested, and the I50 (Spinacia oleracea [1]) was “inactive”.

`OCCc1ccc(O)cc1` was tested, and the I50 (Spinacia oleracea [1]) was “inactive”.

For `CC(C)[C@@H](C)/C=C/[C@@H](C)[C@H]1CC[C@H]2C3=CC=C4C[C@@H](O)CC[C@]4(C)[C@H]3CC[C@]12C`, the I50 (Spinacia oleracea [1]) was “inactive”.

For `COc1cc(O)cc2c1C(=O)O[C@@H](C)CCCCCCC2` [LASIODIPLODIN], the Activity (Spinacia oleracea [2]) was “Active”, the residual activity [3] was 49.4% and the Activity (Spinacia oleracea [4]) was “Active”. For the same compound, the residual activity [5] was 54.5%, the residual activity [6] was 62.3% and the inhibition [7] was 87.5%. It also gave an inhibition [8] of 84.1%, an inhibition [9] of 95.6% and an inhibition [10] of 97.7%. The inhibition [11] was 95%, the inhibition [12] was 98.5% and the residual activity (Spinacia oleracea [13]) was 27%. For the same compound, the residual activity (Spinacia oleracea [14]) was 75%, the residual activity (Spinacia oleracea [15]) was 87% and the residual activity (Spinacia oleracea [16]) was 0%. It also gave a residual activity (Spinacia oleracea [17]) of 40%, a residual activity (Spinacia oleracea [18]) of 70% and a residual activity (Spinacia oleracea [19]) of 80%. For the same compound, the inhibition (Spinacia oleracea [20]) was 100%, the inhibition (Spinacia oleracea [21]) was 100% and the inhibition (Spinacia oleracea [22]) was “Active”. For the same compound, the IC50 (Spinacia oleracea [1]; read-out: I50) was 35.6 µM and the inhibition (Spinacia oleracea [23]) was “Active”.
